These results are taken from PMC4266338 (ACS Medicinal Chemistry Letters, 2014).

A value given as a limit tells only on which side of the number the result lay.

The test system of one data set is CHOP. The data set is described as follows: CHO-CHOP-luciferase reporter assay. The data set is classed as cell-based, Chinese hamster. The note with it: for UPR CHOP AC50 ± SEM: CHO-CHOP-luciferase cells, averaged from n ≥ 4 experiments. Background: Reporter assays use an easily measured gene product as a stand-in for the process of interest.
Data set [1] in a line: Hepatic microsome stability, mouse. The data set is classed as in vitro ADME. The note with it: 37°C, after 1 hr.
Data set [2] is described as follows: Chemical stability toward thiol nucleophiles. Conditions: 10 μM in PBS pH 7.4, 1% DMSO, 8 h, room temperature. The data set is classed as physicochemical.
Data set [3] in a line: Hepatic microsome stability, human. The note with it: 37°C, after 1 hr. The data set is classed as in vitro ADME.
Data set [4] relates to human tumor cell line panel (NCI-60). The data set is described as follows: NCI-60 human tumor cell line panel. The data set is classed as cell-based. Conditions: colon, melanoma, and renal cancer cell lines.
Data set [5] can be described thus: Mouse pharmacokinetics IV and IP. The note with it: male CD-1 mice, IV 2 mg/kg single dose.
The next data set is described as follows: PAMPA permeability. The data set is classed as in vitro ADME. The note with it: donor pH 5.0, 6.2, and 7.4. (The PAMPA barrier holds no transporters, so it reflects passive diffusion.)
The subject of another data set is HN6. The data set is described as follows: OSCC proliferation assay HN6. The data set is classed as cell-based, human. The note with it: HN6, 24 h.
Another data set can be described thus: Aqueous solubility. The data set is classed as physicochemical. The note with it: through a biologically relevant pH range.
In another data set the test system is A253. The data set is described as follows: OSCC proliferation assay A253. The data set is classed as cell-based, human. The note with it: A253, 24 h.
Data set [6] relates to Chop knockout murine embryonic fibroblast (MEF) cells. The data set is described as follows: MEF proliferation assay, Chop knockout. The data set is classed as cell-based, mouse. Conditions: concentrations up to 20 μM, 24 h, Figure S1.
In the next data set the test system is H460/T800. The data set is described as follows: OSCC proliferation assay H460/T800. The note with it: H460/T800, 24 h. The data set is classed as cell-based, human.
In the next data set the test system is HN30. The experiment in a line: OSCC proliferation assay HN30. The data set is classed as cell-based. The note with it: Homo sapiens, 24 h, read-out: potency, dose–response proliferation assay.

Turning to `O=C(Nc1ccc(S(=O)(=O)N2CCNCC2)cc1)c1ccc([N+](=O)[O-])o1` [Compound 8], the loss of activity in the data set on CHOP (CHOP activation relative to hit 3) is approximately 14 fold.
For the compound `O=C(Nc1ccc(S(=O)(=O)N2CCC(O)CC2)cc1)c1ccc([N+](=O)[O-])o1` [Compound 9], on CHOP, the “UPR CHOP AC50 ± SEM” value is “on par with activity observed with hit 3”.
As for `O=C(Nc1ccc(S(=O)(=O)N2CCC(Cl)CC2)cc1)c1ccc([N+](=O)[O-])o1` [Compound 12], the “Hepatic Microsome Stability percent remaining” value in data set [1] and in data set [3] was “almost completely metabolized” throughout. The “compound remaining with dithiothreitol (DTT)” value in data set [2] (5-fold excess DTT) amounted to 100%. For the same compound, the “compound remaining with glutathione (GSH)” value in [2] (5-fold excess GSH) was 100%. Moreover, the growth inhibition potency result in data set [4] is recorded as “low micromolar potency”. For the same compound, in [5], the “IV dose cleared from circulation within” value is given as not above 30 min. In “PAMPA permeability”, the “PAMPA permeability in words” value was “good permeability”. Further, the “sensitivity, dose–response proliferation assay” value with HN6, with A253 and in the data set with H460/T800 was “more resistant” throughout. Moreover, the “Aqueous stability in PBS and pION buffer” value in the data set “Aqueous solubility” is reported as 8.7–9.7 μM. In data set [6], the “effect on Chop-null MEF cells” value is “unaffected”. The EC50 in the data set on HN30 stood at 9 ± 1.1 µM.
Consider `O=C(Nc1ccc(S(=O)(=O)N2CCOCC2)cc1)c1ccco1` [Compound 27], for which, on CHOP, the “UPR CHOP AC50 ± SEM” value was “loss of activity”.
With `Cc1ccc(C(=O)Nc2ccc(S(=O)(=O)N3CCOCC3)cc2)o1` [Compound 28], at CHOP, the “UPR CHOP AC50 ± SEM” value is “loss of activity”.
On to `O=C(Nc1ccc(S(=O)(=O)N2CCOCC2)cc1)c1ccc(Br)o1` [Compound 29], for which the “UPR CHOP AC50 ± SEM” value at CHOP was “loss of activity”.
`CC1(C)CCN(S(=O)(=O)c2ccc(NC(=O)c3ccc(C(F)(F)F)o3)cc2)CC1` [Compound 30]: the “UPR CHOP AC50 ± SEM” value at CHOP is given as “loss of activity”.
